# Tests used:
# Format in all cases: cell-based
# [1] = target: T1, EGFR L858R (BaF3-L858R cells) (Homo sapiens, UniProt P00533, L858R); assay: Cell degradation of EGFR, HTRF assay, BaF3-L858R cells; settings: 16 h treatment; for DC50: EGFR degradation; for Dmax: maximum percentage of degradation
# T1 construct: host or cells: BaF3
# Summary of the method: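 EGFR L858R levels measured by HTRF antibody pair in lysed BaF3-L858R cells after 16 h compound exposure (8-point 5-fold series from 10 uM final, 37° C). Degradation is relative to DMSO-only cells; DC50 fitted with Hill equation, Dmax taken as the largest percent loss.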
# [2] = target: T2, EGFR-L858R/C797S (H1975-clone #8 cells) (Homo sapiens, UniProt P00533, C797S/L858R); assay: Cell degradation of EGFR, HTRF assay, H1975-clone#8 (L858R/C797S) cells; settings: 16 h treatment; for DC50: EGFR degradation; for Dmax: maximum percentage of degradation
# T2 construct: expressed in transfected cells; host or cells: H1975 (endogenous EGFR knocked out, clone #8)
# [3] = target: T3, p-EGFR L858R (BaF3-L858R cells) (Homo sapiens, UniProt P00533, L858R); assay: Cell p-EGFR inhibition assay, HTRF, BaF3-L858R cells; settings: 16 h treatment; for Imax (%): maximum percentage of pEGFR inhibition; for IC50: pEGFR inhibition
# T3 construct: host or cells: BaF3
# Experimental: BaF3-L858R (abbv. L858R) cell were purchased from Kangyuan Bochuang Biotechnology (Beijing) Co., Ltd.
# (§1) H1975-#23 and BaF3-L858R cells are treated with compounds diluted in 0.1% DMSO cell culture medium on day 2, incubate for 16 h, 37° C., 5% CO2. the final concentration of compounds in all assay is start with 10 uM, 5-fold dilution, total 8 doses were included.
# (§2) After 16 h treatment, for H1975-#23 cells, add 50 ul HTRF 1× lysis buffer to each well; for BaF3-L858R cells, add 20 μl 4× lysis buffer to each well; seal the plate and incubate 1 hour at room temperature on a plate shaker; Once the cells are lysed, 16 μL of cell lysate are transferred to a PE 384-well HTRF detection plate; 4 μL of pre-mixed HTRF antibodies are added to each well; Cover the plate with a plate sealer, spin 1000 rpm for 1 min, Incubate overnight at room temperature; Read on BMG PheraStar with HTRF protocol (337 nm-665 nm-620 nm).
# (§3) High control=Cell group with added DMSO and without compound, indicating microplate readings without p-EGFR inhibited.
# (§4) Imax is the maximum percentage of inhibition.
# (§5) The IC50 value of a compound can be obtained by fitting the following equation.
# (§6) Wherein, X and Y are known values, and IC50, Hillslope, Top and Bottom are the parameters obtained by fitting with software. […] The experimental data were fitted by calculating and analyzing with Dotmatics data analysis software.
# [4] = target: p-EGFR Del19/C797S (H1975-clone #23 cells) (Homo sapiens, UniProt P00533); assay: Cell p-EGFR inhibition assay, HTRF, H1975-clone#23 (DEL19/C797S) cells; settings: 16 h treatment; for Imax (%): maximum percentage of pEGFR inhibition; for IC50: pEGFR inhibition
# Experimental: The EGFR over-expressed cells then underwent knockout, in which the EGFR targeting sgRNA was designed to only target the endogenous EGFR copies and preserve the exogenous EGFR copies. Followed by the knockout, the edited H1975 cells were seeded in 96 well plates at the concentration of 1 cell/well, cultured for about 2 weeks to allow single clones formation. The formed clones were screened by DNA sequencing and whole exon sequencing analysis for the desired edition.
# as §1, §2, §3, §4, §5, §6
SMILES,DC50 [1],Dmax [1],DC50 [2],Dmax [2],Imax (%) [3],IC50 [3],Imax (%) [4],IC50 [4]
"COC[C@H]1CN(c2ccc3c(c2)N2C[C@@H]4CC[C@H](COc5c(cnn5C)-c5cc(cc(C)n5)C(=O)/N=C/2N3)C4)CCN1C1CCN(c2ccc(C3CCC(=O)NC3=O)nc2C)CC1 (stereo partly drawn) [Example 65, 3-(5-(4-((R)-4-((7^1R,7^3S,E)-1^1,2^6-dimethyl-3-oxo-5^2,5^3-dihydro-1^1H,5^1H-9-oxa-4-aza-5(2,1)-benzo[d]imidazola-2(2,4)-pyridina-1(4,5)-pyrazola-7(1,3)-cyclopentanacyclononaphane-5^6-yl)-2-(methoxymethyl)piperazin-1-yl)piperidin-1-yl)-6-methylpyridin-2-yl)piperidine-2,6-dione]",0.94 nM,88.7%,0.87 nM,78.6%,103%,2.8 nM,101.5%,0.3 nM
"COC[C@@H]1CN(c2ccc3c(c2)N2C[C@@H]4CC[C@H](COc5c(cnn5C)-c5cc(cc(C)n5)C(=O)/N=C/2N3)C4)CCN1CC1CN(c2ccc3c(c2)C(=O)N(C2CCC(=O)NC2=O)C3=O)C1 (stereo partly drawn) [Example 69, 5-(3-(((S)-4-((7^1R,7^3S,E)-1^1,2^6-dimethyl-3-oxo-5^2,5^3-dihydro-1^1H,5^1H-9-oxa-4-aza-5(2,1)-benzo[d]imidazola-2(2,4)-pyridina-1(4,5)-pyrazola-7(1,3)-cyclopentanacyclononaphane-5^6-yl)-2-(methoxymethyl)piperazin-1-yl)methyl)azetidin-1-yl)-2-(2,6-dioxopiperidin-3-yl)isoindoline-1,3-dione]",3.2 nM,89.3%,5.24 nM,62.4%,99.9%,5.7 nM,100.1%,1.8 nM
"COC[C@@H]1CN(c2ccc3c(c2)N2CC4CC[C@H](COc5c(cnn5C)-c5cc(cc(C)n5)C(=O)/N=C/2N3)C4)CCN1C1CCN(c2cc(F)c(C3CCC(=O)NC3=O)nc2C)CC1 (stereo partly drawn) [Example 70, 3-(5-(4-((S)-4-((7^1R,7^3S,E)-1^1,2^6-dimethyl-3-oxo-5^2,5^3-dihydro-1^1H,5^1H-9-oxa-4-aza-5(2,1)-benzo[d]imidazola-2(2,4)-pyridina-1(4,5)-pyrazola-7(1,3)-cyclopentanacyclononaphane-5^6-yl)-2-(methoxymethyl)piperazin-1-yl)piperidin-1-yl)-3-fluoro-6-methylpyridin-2-yl)piperidine-2,6-dione]",3.78 nM,87.7%,4.11 nM,73.5%,102.1%,11 nM,99.2%,1.4 nM
"COC[C@H]1CN(c2ccc3c(c2)N2CC4CC[C@H](COc5c(cnn5C)-c5cc(cc(C)n5)C(=O)/N=C/2N3)C4)CCN1C1CCN(c2cc(F)c(C3CCC(=O)NC3=O)nc2C)CC1 (stereo partly drawn) [Example 71, 3-(5-(4-((R)-4-((7^1R,7^3S,E)-1^1,2^6-dimethyl-3-oxo-5^2,5^3-dihydro-1^1H,5^1H-9-oxa-4-aza-5(2,1)-benzo[d]imidazola-2(2,4)-pyridina-1(4,5)-pyrazola-7(1,3)-cyclopentanacyclononaphane-5^6-yl)-2-(methoxymethyl)piperazin-1-yl)piperidin-1-yl)-3-fluoro-6-methylpyridin-2-yl)piperidine-2,6-dione]",3.63 nM,84.6%,3.3 nM,80.2%,99.7%,6.4 nM,99.8%,1.1 nM
"Cc1cc2cc(n1)-c1c(C)nn(C)c1OC[C@H]1CCC(C1)CN1/C(=N/C2=O)Nc2ccc(N3CCN(C4CCN(c5ccc(C6CCC(=O)NC6=O)nc5C)CC4)CC3)cc21 (stereo partly shown) [Example 72, 3-(6-methyl-5-(4-(4-((7^1R,7^3S,E)-1^1,1^3,2^6-trimethyl-3-oxo-5^2,5^3-dihydro-1^1H,5^1H-9-oxa-4-aza-5(2,1)-benzo[d]imidazola-2(2,4)-pyridina-1(4,5)-pyrazola-7(1,3)-cyclopentanacyclononaphane-5^6-yl)piperazin-1-yl)piperidin-1-yl)pyridin-2-yl)piperidine-2,6-dione]",0.4 nM,91.6%,0.64 nM,76.6%,92.8%,3.2 nM,101.7%,0.6 nM
"COC[C@@H]1CN(c2ccc3c(c2)N2CC4CC[C@H](COc5c(cnn5C)-c5cc(cc(C)n5)C(=O)/N=C/2N3)C4)CCN1C1CCN(c2ccc(C3CCC(=O)NC3=O)nc2C)CC1 (stereo partly drawn) [Example 73, 3-(5-(4-((S)-4-((7^1R,7^3S,E)-1^1,2^6-dimethyl-3-oxo-5^2,5^3-dihydro-1^1H,5^1H-9-oxa-4-aza-5(2,1)-benzo[d]imidazola-2(2,4)-pyridina-1(4,5)-pyrazola-7(1,3)-cyclopentanacyclononaphane-5^6-yl)-2-(methoxymethyl)piperazin-1-yl)piperidin-1-yl)-6-methylpyridin-2-yl)piperidine-2,6-dione]",2.02 nM,87.2%,2.24 nM,78.4%,93.5%,10.2 nM,101.1%,1 nM
"Cc1cc2cc(n1)-c1c(C)nn(C)c1OC[C@H]1CCC(C1)CN1/C(=N/C2=O)Nc2ccc(N3CCN(C4CCN(c5cc(F)c([C@H]6CCC(=O)NC6=O)c(F)c5)CC4)CC3)cc21 [Example 74, (R)-3-(2,6-difluoro-4-(4-(4-((7^1R,7^3S,E)-1^1,1^3,2^6-trimethyl-3-oxo-5^2,5^3-dihydro-1^1H,5^1H-9-oxa-4-aza-5(2,1)-benzo[d]imidazola-2(2,4)-pyridina-1(4,5)-pyrazola-7(1,3)-cyclopentanacyclononaphane-5^6-yl)piperazin-1-yl)piperidin-1-yl)phenyl)piperidine-2,6-dione]",0.99 nM,90.4%,1 nM,86.2%,93.3%,3.2 nM,101.2%,1.7 nM
"Cc1cc2cc(n1)-c1cnn(C)c1OC[C@H]1CCC(C1)CN1/C(=N/C2=O)Nc2ccc(N3CCN(C4CCN(c5cc(F)c([C@H]6CCC(=O)NC6=O)c(F)c5)CC4)[C@@H](CO)C3)cc21 [Example 75, (R)-3-(4-(4-((R)-4-((7^1R,7^3S,E)-1^1,2^6-dimethyl-3-oxo-5^2,5^3-dihydro-1^1H,5^1H-9-oxa-4-aza-5(2,1)-benzo[d]imidazola-2(2,4)-pyridina-1(4,5)-pyrazola-7(1,3)-cyclopentanacyclononaphane-5^6-yl)-2-(hydroxymethyl)piperazin-1-yl)piperidin-1-yl)-2,6-difluorophenyl)piperidine-2,6-dione]",1.6 nM,82.7%,0.97 nM,61.3%,92.6%,7.9 nM,101.1%,0.6 nM
